Laboratory results as given in US20260250246A1, “PSILOCYBIN ANALOGS, SALTS, COMPOSITIONS, AND METHODS OF USE” (priority 2021, published 2026).
Values joined by “and” are separate entries in the source; they are usually repeats but may differ in a detail not shown here. Identical values can stand only once. Counter-ions that a name gives are not always drawn.

Legend:
[1] = Pharmacokinetics of psilocin-d10 and psilocybin in male beagle dog, powder in capsule (PIC) or orally disintegrating tablet (ODT)
[2] = Psilocin-d10 pharmacokinetics study in dogs following oral gavage and intravenous (bolus) administrations
[3] = Anti-solvent precipitation: DMF or DMSO solution added to water; assay type: physicochemical
Method: The following techniques were tried but were not successful in the preparation of amorphous material: • i) Crash cooling freeze drying. […] Instead, solutions were formed which became dark within 4 hours, signifying degradation

[4] = Stability of amorphous form from melt/crash cooling on standing; assay type: physicochemical; conditions: amorphous free base
[5] = Psilocin-d0/psilocin-d10 and psilocybin PK comparative study in rats (oral gavage, intravenous bolus; plasma and brain); conditions: for oral bioavailability: co-dosing of PI-d0 and PI-d10
[6] = Maturation in 12 different solvents with thermal cycling (XRPD); assay type: physicochemical; conditions: thermal cycling room temperature/50° C., 3 days
Method: The resulting slurries were subjected to maturation with thermal cycling between room temperature and 50° C. (4 hours at each condition) for 3 days. Solids were then analysed by XRPD.

[7] = Long term stability studies with citric acid and sodium citrate buffer; assay type: physicochemical
Method: The long-term stability (up to 25 days) of psilocin in a citric acid solution (0.1 M, pH 1.60) and a sodium citrate buffer (0.1 M, pH 6.01) at 4° C. and 23° C. was assessed.
(§1) Preparation of 0.1 M sodium citrate buffer (pH 6.01): 2.427 g of sodium citrate dihydrate and 0.336 g of citric acid were dissolved in 80 ml of DI water. The pH was adjusted to 6.0 using a 1 M NaOH solution. The final volume was adjusted to 100 ml.
Test solutions: Psilocin (1 mg/ml) was mixed with (i) sodium citrate buffer (0.1 M, pH 6.01) and (ii) citric acid solution (0.1 M, pH 1.60) in 1:1 v/v. The samples were stored at 4° C. and 23° C., and aliquots were sampled at designated timepoints (days 0, 7, 17, and 25).

[8] = Stability studies in citric acid solution
[9] = Stability studies in sodium citrate buffer; assay type: physicochemical
Method: as §1

[10] = Stability studies with cyclodextrin complexes; conditions: 40° C., with or without metal salts
[11] = Stability studies in acid solutions (PI salt solutions); assay type: physicochemical; conditions: 40° C.
Source text: Ascorbic acid (AsA), acetic acid (AcA), tartaric acid (TA), fumaric acid (FA), citric acid (CA), malic acid (MA), benzenesulfonic acid (BSA), stearic acid (SA), sodium citrate dihydrate, monosodium phosphate hydrate, disodium phosphate were purchased from Sigma Aldrich. Aluminum (III) chloride (AlCl3) and iron (III) chloride (FeCl3) were purchased from Sigma Aldrich. Antioxidants, i.e., ethylenediaminetetraacetic acid (EDTA), ascorbic acid (AsA), L-cysteine (Cys), sodium metabisulfite (NamBiSO3) and propyl gallate (PG) were purchased from Sigma Aldrich. Hydroxypropyl-β-cyclodextrin (CAVASOL® W7 HP, CAVITRON® W7 HP7) and methyl-β-cyclodextrin (CAVASOL® W7 M) were provided by DuPont.
The following chromatographic conditions were used:
Diluent. The diluent used in the below studies was prepared as follows: 100 mL of acetonitrile (ACN) was mixed with 800 mL of water and 100 mL of 1.0 M citric acid and mixed well to prepare 1 L of diluent.
The stability of psilocin in 0.1 M solutions of various acids was tested.
Test solutions: To prepare the test solutions, 0.1 M solutions of AsA, AcA, TA, FA, CA, MA, BSA, and SA were prepared in DI water.

[12] = Stability studies with antioxidants; conditions: EDTA, ascorbic acid, L-cysteine, sodium metabisulfite, propyl gallate; 40° C.
[13] = Observation of freeze dried salt; assay type: physicochemical; conditions: freeze dried from 1,4-dioxane
[14] = ODT, psilocin-d10 dosed 5 mg (nominal 0.5 mg/kg), analyte psilocin-d10, male beagle dog plasma, Mean
[15] = PIC, psilocin-d10 dosed 5 mg (nominal 0.5 mg/kg), analyte psilocin-d10, male beagle dog plasma, Mean
[16] = female dog plasma, single intravenous (bolus) 0.20 mg/kg, Mean, N=3
[17] = female dog plasma, single intravenous (bolus) 0.20 mg/kg, Median, N=3
[18] = female dog plasma, single intravenous (bolus) 0.20 mg/kg, individual animals 60F, 61F, 723F, listed as Psilocin-d10, 0.2 mg/kg
[19] = female dog plasma, single oral (gavage) 1.00 mg/kg, Median, N=3
[20] = female dog plasma, single oral (gavage) 1.00 mg/kg, individual animals 60F, 61F, 723F, listed as Psilocin-d10, 1 mg/kg

Compound: [2H]C([2H])([2H])N(C([2H])([2H])[2H])C([2H])([2H])C([2H])([2H])c1c[nH]c2cccc(O)c12 [Compound I-3, 3-(2-(bis(methyl-d3)amino)ethyl-1,1,2,2-d4)-1H-indol-4-ol]
- AUCINF_obs [1, 14]: 213 ng·h/mL
- AUClast [1, 14]: 199 ng·h/mL
- Cl_F_obs [1, 14]: 40.33 mL/min/kg
- Cmax [1, 14]: 67.2 ng/mL
- Tmax [1, 14]: 0.542 h
- Vz_F_obs [1, 14]: 6.9 L/kg
- AUClast [1, 15]: 181 ng·h/mL
- Cl_F_obs [1, 15]: 43.5 mL/min/kg
- Cmax [1, 15]: 60 ng/mL
- T½ [1, 15]: 2.01 h
- Vz_F_obs [1, 15]: 7.6 L/kg
- psilocin-d10 exposure compared to psilocin exposure after administration of psilocybin ([1]; dogs, independent of formulation): twice as high
- time of last detectable plasma level ([2]; dogs, oral administration): 9 h
- Cmax [2, 16]: 45.8 ng/mL
- t1/2 [2, 16]: 1.37 h
- AUC0-inf [2, 17]: 95.8 ng·h/mL
- AUC0-t [2, 17]: 80.7 ng·h/mL
- CL [2, 17]: 34.83 mL/min/kg
- Cmax [2, 17]: 45.9 ng/mL
- DN Cmax [2, 17]: 230 (ng/mL)/(mg/kg)
- Vss [2, 17]: 3.96 L/kg
- AUC0-inf [2, 18]: 95.8 ng·h/mL
- AUC0-t [2, 18]: 80.7 ng·h/mL
- CL [2, 18]: 34.83 mL/min/kg
- Cmax [2, 18]: 45.9 ng/mL and 43.9 ng/mL
- DN AUC0-inf [2, 18]: 500 (h*ng/mL)/(mg/kg)
- DN Cmax [2, 18]: 230 (ng/mL)/(mg/kg) and 220 (ng/mL)/(mg/kg)
- Vss [2, 18]: 3.96 L/kg
- AUC0-inf [2, 19]: 414 ng·h/mL
- AUC0-t [2, 19]: 399 ng·h/mL
- t1/2 [2, 19]: 1.80 h
- AUC0-inf [2, 20]: 426 ng·h/mL and 414 ng·h/mL
- AUC0-t [2, 20]: 404 ng·h/mL and 399 ng·h/mL
- Cmax [2, 20]: 126 ng/mL
- t1/2 [2, 20]: 1.80 h and 1.82 h and 1.69 h
- time until solutions became dark, signifying degradation [3]: ≤ 4 h
- stability of amorphous form [4]: not stable for prolonged periods
- oral bioavailability ([5]; rats): 12.1%

Compound: [2H]C([2H])([2H])N(C([2H])([2H])[2H])C([2H])([2H])C([2H])([2H])c1c[nH]c2cccc(O)c12 [Compound I-3j, Benzoate Salt of 3-(2-(bis(methyl-d3)amino)ethyl-1,1,2,2-d4)-1H-indol-4-ol]
- crystalline form by XRPD after maturation in 12 solvents [6]: retained their initial crystalline form

Compound: CN(C)CCc1c[nH]c2cccc(O)c12 [Compound I-7, 3-(2-(dimethylamino)ethyl)-1H-indol-4-ol]
- long-term solution stability ([7]; citric acid 0.1 M, pH 1.60, 23° C. and 4° C., 25 days): only minimal degradation
- time psilocin remained stable ([7]; sodium citrate buffer pH 6.01, cold storage 4° C.): up to 17 days
- long-term solution stability ([7]; sodium citrate buffer pH 6.01, room temperature): degradation of psilocin began within a week
- psilocin stabilization at 24 hour time point ([8]; small quantities of citric acid, 40° C., 24 hour): 30%
- solution stability (% psilocin remaining) ([8]; small quantities of citric acid, pH 3.2, 4° C. and 23° C.): greatly enhanced the stability
- solution stability (% psilocin remaining) ([8]; without citric acid, 4, 23 and 40° C., by 18 hour time point): nearly all psilocin being degraded
- solution stability (% psilocin remaining) ([8]; without citric acid, with Fe3+ and Al3+ metal ions): significant psilocin degradation
- solution stability (% psilocin remaining) ([9]; 0.1 M sodium citrate buffer, 4° C. and room temperature): greatly stabilized
- degradation of psilocin ([9]; 0.1 M sodium citrate buffer, 40° C.): 10-15%
- effect of metal salts (Fe3+ and Al3+) on psilocin ([9]; in 0.1 M citrate buffer): no detrimental effects
- solution stability (% psilocin remaining) ([9]; non-citrate buffered, with Fe3+ and Al3+ metal ions): significant psilocin degradation
- solution stability (% psilocin remaining) ([9]; without sodium citrate buffer, 4, 23, 40° C., by 18 hour time point): nearly all psilocin being degraded
- stability with cyclodextrins [10]: did not impart stability
- solution stability (% psilocin remaining) ([11]; 0.1 M acid solutions, with or without metal salts, up to 24): excellent stability
- solution stability (% psilocin remaining) ([11]; without acid, within 24 hours): nearly all psilocin being degraded
- solution stability (% psilocin remaining) ([11]; without acid, with Fe3+ and Al3+ metal ions): significant psilocin degradation
- stability against metal salts with antioxidants [12]: none of the antioxidants tested were able to provide stability
- oral bioavailability ([5]; rats): 7.52%

Compound: CN(C)CCc1c[nH]c2cccc(O)c12 [Compound I-7a, Benzenesulfonate Salt of 3-(2-(dimethylamino)ethyl)-1H-indol-4-ol]
- crystalline form by XRPD after maturation in 12 solvents [6]: retained their initial crystalline form

Compound: CN(C)CCc1c[nH]c2cccc(O)c12 [Compound I-7b, Tartrate Salt of 3-(2-(dimethylamino)ethyl)-1H-indol-4-ol]
- crystalline form by XRPD after maturation in 12 solvents [6]: retained their initial crystalline form

Compound: CN(C)CCc1c[nH]c2cccc(O)c12 [Compound I-7c, Hemi-Fumarate Salt of 3-(2-(dimethylamino)ethyl)-1H-indol-4-ol]
- crystalline form by XRPD after maturation in 12 solvents [6]: complex polymorphism

Compound: CN(C)CCc1c[nH]c2cccc(O)c12 [Compound I-7e, Citrate Salt of 3-(2-(dimethylamino)ethyl)-1H-indol-4-ol]
- hygroscopicity of isolated solid [13]: hygroscopic

Compound: CN(C)CCc1c[nH]c2cccc(O)c12 [Compound I-7j, Benzoate Salt of 3-(2-(dimethylamino)ethyl)-1H-indol-4-ol]
- crystalline form by XRPD after maturation in 12 solvents [6]: retained their initial crystalline form

Compound: CN(C)CCc1c[nH]c2cccc(OP(=O)(O)O)c12 [psilocybin]
- Tmax ([5]; rat plasma, Group 3: psilocybin intravenous (bolus) 2.8 mg/kg, label = analyte, IAD = immediately after dosing): IAD
- brain concentrations compared to plasma ([5]; rats, after IV dosing): brain concentrations are low
